Reference: patent US4687775A, “2-[(Imidazo[1,2-a]pyridinylmethyl)sulfinyl]-1H-benzimidazoles” (G. D. Searle & Co., priority 1986, dated 1987)

Columns and labels:
(H^+ +K^+)-ATPase = target: T1, (H^+ +K^+)-ATPase (Canis lupus familiaris, UniProt P50996); assay: Inhibition of (H^+ +K^+)-ATPase from Canine Gastric Mucosa; type: biochemical, canine (mongrel dogs); settings: canine gastric mucosa microsomes; pH 6.0; 30 min preincubation with compound at 37°; K^+-stimulated minus basal activity
T1 construct: (H^+ +K^+)-ATPase obtained from canine gastric mucosa; from tissue; host or cells: glandular gastric mucosa of mongrel dogs (antral and cardiac regions removed), microsomes from the 15%-30% sucrose interface, lyophilized
Procedure: Inhibition of (H^+ +K^+)-ATPase from Canine Gastric Mucosa
Mongrel dogs weighing 15 to 25 kilograms were fasted for twenty-four hours, with water provided ad libitum. The animals were anesthetized with pentobarbital and the stomachs were removed. Subsequent tissue manipulations and subcellular fractionations were performed at 0° to 4° C. After the stomachs were cut open and rinsed with tap water, the antral and cardiac regions were removed and the remaining tissue was rinsed three times in saline. The glandular mucosa was removed mechanically, chopped finely in a medium containing 10 mM Tris hydrochloride (pH 7.4) and 250 mM sucrose, and homogenized. The homogenate was centrifuged at 20,000×g for twenty minutes and the pellet discarded. The supernatant was then centrifuged at 150,000×g for ninety minutes and the supernatant discarded. The pellet was resuspended in the Tris-HCl/sucrose medium by homogenization. Part (2 ml) of the resultant microsomal suspension was layered onto a step gradient consisting of 9 ml of 15% sucrose above 12 ml of 30% sucrose, each sucrose solution being buffered with 10 mM Tris hydrochloride (pH 7.4) containing 0.01% sodium azide. The microsomes retained at the 15%-30% sucrose interface, after centrifugation at 250,000×g for sixty minutes, were used as the source of (H^+ +K^+)-ATPase. Microsomal preparations were lyophilized, a process that assured potassium ion permiability, and stored at -10° until used.
(H^+ K^+)-ATPase activity for each test compound was determined, in duplicate, by measuring the release of inorganic phosphate, which was assayed according to the method of J. ChandraRajan and L. Klein. Anal. Biochem., 72, 407-412 (1976). The (H^+ +K^+)-ATPase assay medium consisted of 20 mM Mes-Tris (pH 6.0), 5 mM magnesium chloride, 25 mM sucrose, and 4 mM Tris-ATP with or without 20 mM potassium chloride in a total volume of 2 ml. Microsomal suspensions (20 to 60 mcl, containing about 25 mcg protein) were added to the assay medium, without Tris-ATP, and then preincubated with a test compound for thirty minutes at 37°. The assay was initiated by adding Tris-ATP and the mixture was incubated another thirty minutes at 37°. A 200-mcl aliquot of the assay mixture was then added to 1.4 ml of a solution consisting of 0.1M sodium acetate (pH 4.0) and 10 % sodium dodecylsulfate, followed by the addition of 200 mcl each of 1% ammonium molybdate and 1% ascorbic acid. At least fifteen minutes later, the optical absorbance at 870 nm (which was proportional to inorganic phosphate concentration up to 100 nmoles per tube, as determined by a standard curve) was obtained. Enzyme activity was linear with incubation time.
(H^+ +K^+)-ATPase activity is represented by the difference between the measured activities in the presence of potassium ion (K^+ -stimulated) and in the absence of potassium ion (basal). […] If the IC50 for a test compound could not be determined for the concentration range tested, percent inhibition of (H^+ +K^+)-ATPase was obtained for the compound at 0.1 mM.

[1] = test system: gastric acid secretion in gastric fistula beagle dogs; assay: Inhibition of Gastric Acid Secretion in Gastric Fistula Beagle Dogs; type: in vivo; settings: 3 mg/kg dose; i.d. (intraduodenal); histamine-stimulated secretion, four-hour period

T1 sequence (P50996 2-1034 limits assumed): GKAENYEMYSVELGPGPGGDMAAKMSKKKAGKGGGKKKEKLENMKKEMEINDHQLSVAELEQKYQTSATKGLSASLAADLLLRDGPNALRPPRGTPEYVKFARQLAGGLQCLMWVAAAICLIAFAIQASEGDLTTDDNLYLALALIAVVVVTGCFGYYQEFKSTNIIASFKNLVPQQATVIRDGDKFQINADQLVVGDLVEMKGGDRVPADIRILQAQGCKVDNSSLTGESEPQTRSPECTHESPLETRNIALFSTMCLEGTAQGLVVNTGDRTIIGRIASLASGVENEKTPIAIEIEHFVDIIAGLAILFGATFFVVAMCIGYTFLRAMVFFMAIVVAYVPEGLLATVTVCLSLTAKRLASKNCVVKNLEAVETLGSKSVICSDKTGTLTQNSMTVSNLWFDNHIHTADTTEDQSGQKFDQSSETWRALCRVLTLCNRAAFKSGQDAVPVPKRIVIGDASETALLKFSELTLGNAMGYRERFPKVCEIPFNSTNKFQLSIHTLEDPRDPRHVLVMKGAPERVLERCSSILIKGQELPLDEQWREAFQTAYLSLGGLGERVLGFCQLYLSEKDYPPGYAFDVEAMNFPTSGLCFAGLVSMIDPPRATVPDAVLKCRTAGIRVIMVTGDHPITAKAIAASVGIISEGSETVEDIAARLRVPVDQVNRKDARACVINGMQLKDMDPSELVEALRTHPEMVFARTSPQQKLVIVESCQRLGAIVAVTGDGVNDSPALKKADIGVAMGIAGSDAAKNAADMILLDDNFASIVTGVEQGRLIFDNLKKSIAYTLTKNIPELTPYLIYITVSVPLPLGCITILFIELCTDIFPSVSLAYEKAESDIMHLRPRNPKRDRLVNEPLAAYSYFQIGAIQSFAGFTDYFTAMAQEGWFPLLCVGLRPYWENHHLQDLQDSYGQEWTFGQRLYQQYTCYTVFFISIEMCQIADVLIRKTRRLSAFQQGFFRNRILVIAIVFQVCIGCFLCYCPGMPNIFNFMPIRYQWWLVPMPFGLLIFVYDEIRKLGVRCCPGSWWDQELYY
T1 sequence (P33704 whole entry partner): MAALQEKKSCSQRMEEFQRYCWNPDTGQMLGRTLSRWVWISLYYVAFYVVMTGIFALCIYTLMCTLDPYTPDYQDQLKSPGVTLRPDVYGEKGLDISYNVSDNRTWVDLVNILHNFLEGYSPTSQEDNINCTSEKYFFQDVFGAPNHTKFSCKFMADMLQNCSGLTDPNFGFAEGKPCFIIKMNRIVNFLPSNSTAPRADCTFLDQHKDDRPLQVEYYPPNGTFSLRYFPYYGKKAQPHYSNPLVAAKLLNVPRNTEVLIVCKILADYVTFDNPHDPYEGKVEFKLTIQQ

Compound	IC50 ((H^+ +K^+)-ATPase)	Gastric-Fistula Beagle % Inhibition [1]
[O-][S+](Cc1cccn2ccnc12)c1nc2ccccc2[nH]1 (centres unmarked) [Example 3, 2-[(imidazo[1,2-a]pyridin-8-ylmethyl)sulfinyl]-1H-benzimidazole 1/8 hydrate]	2.7 µM	57%
Cc1cn2cccc(C[S+]([O-])c3nc4ccccc4[nH]3)c2n1 (centres unmarked) [Example 5]	6.7 µM	16%
COc1ccc2[nH]c([S+]([O-])Cc3cccn4ccnc34)nc2c1 (centres unmarked) [Example 7, 2-[(imidazo[1,2-a]pyridin-8-ylmethyl)sulfinyl]-5-methoxy-1H-benzimidazole]	8.5 µM	
CCOc1ccc2[nH]c([S+]([O-])Cc3cccn4ccnc34)nc2c1 (centres unmarked) [Example 9, 5-ethoxy-2-[(imidazo[1,2-a]pyridin-8-ylmethyl)sulfinyl]-1H-benzimidazole]	9.2 µM	
Cc1cccc2[nH]c([S+]([O-])Cc3cccn4ccnc34)nc12 (centres unmarked) [Example 11, 2-[(imidazo[1,2-a]pyridin-8-ylmethyl)sulfinyl]-4-methyl-1H-benzimidazole]	6.2 µM	
Cc1ccc2[nH]c([S+]([O-])Cc3cccn4ccnc34)nc2c1 (centres unmarked) [Example 13, 2-[(imidazo[1,2-a]pyridin-8-ylmethyl)sulfinyl]-5-methyl-1H-benzimidazole]	3.1 µM	
Cc1cc2nc([S+]([O-])Cc3cccn4ccnc34)[nH]c2cc1C (centres unmarked) [Example 15, 2-[(imidazo[1,2-a]pyridin-8-ylmethyl)sulfinyl]-5,6-dimethyl-1H-benzimidazole hydrate]	4.8 µM	
COc1cc2nc([S+]([O-])Cc3cccn4ccnc34)[nH]c2cc1OC (centres unmarked) [Example 17, 2-[(imidazo[1,2-a]pyridin-8-ylmethyl)sulfinyl]-5,6-dimethoxy-1H-benzimidazole]	69 µM	
[O-][S+](Cc1cccn2ccnc12)c1nc2cc(Cl)ccc2[nH]1 (centres unmarked) [Example 19, 5-chloro-2-[(imidazo[1,2-a]pyridin-8-ylmethyl)sulfinyl]-1H-benzimidazole]	5 µM	
[O-][S+](Cc1cccn2ccnc12)c1nc2cc(C(F)(F)F)ccc2[nH]1 (centres unmarked) [Example 21, 2-[(imidazo[1,2-a]pyridin-8-ylmethyl)sulfinyl]-5-(trifluoromethyl)-1H-benzimidazole]	3.4 µM	
Cc1nc2c(C[S+]([O-])c3nc4ccccc4[nH]3)cccn2c1C (centres unmarked) [Example 23, 2-[[(2,3-dimethylimidazo[1,2-a]pyridin-8-yl)methyl]sulfinyl]-1H-benzimidazole]	6.2 µM	
Cc1cnc2c(C[S+]([O-])c3nc4ccccc4[nH]3)cccn12 (centres unmarked) [Example 25, 2-[[(3-methylimidazo[1,2-a]pyridin-8-yl)methyl]sulfinyl]-1H-benzimidazole hemihydrate1/2CH2 Cl2]	4 µM	
[O-][S+](Cc1cccn2cc(-c3ccccc3)nc12)c1nc2ccccc2[nH]1 (centres unmarked) [Example 28, 2-[[(2-phenylimidazo[1,2-a]pyridin-8-yl)methyl]sulfinyl]-1H-benzimidazole 1/4 hydrate]	> 100 µM	
[O-][S+](Cc1cccn2c(-c3ccccc3)cnc12)c1nc2ccccc2[nH]1 (centres unmarked) [Example 30, 2-[[(3-phenylimidazo[1,2-a]pyridin-8-yl)methyl]sulfinyl]-1H-benzimidazole hemihydrate]	9.1 µM	
O=[N+]([O-])c1ccc(-c2cnc3c(C[S+]([O-])c4nc5ccccc5[nH]4)cccn23)cc1 (centres unmarked) [Example 33, 2-[[[3-(4-nitrophenyl)imidazo[1,2-a]pyridin-8-yl]methyl]sulfinyl]-1H-benzimidazole 1/4 hydrate]	17.5 µM	
[O-][S+](Cc1cccn2c(-c3cccc(C(F)(F)F)c3)cnc12)c1nc2ccccc2[nH]1 (centres unmarked) [Example 36, 2-[[[3-[3-(trifluoromethyl)phenyl]imidazo[1,2-a]pyridin-8-yl]methyl]sulfinyl]-1H-benzimidazole]	6.9 µM	
Cc1ccc2[nH]c([S+]([O-])Cc3cccn4c(-c5cccc(C(F)(F)F)c5)cnc34)nc2c1 (centres unmarked) [Example 39, 5-methyl-2-[[[3-[3-(trifluoromethyl)phenyl]imidazo[1,2-a]pyridin-8-yl]methyl]sulfinyl]-1H-benzimidazole]	7.2 µM	
[O-][S+](Cc1cccn2c(-c3cccc(C(F)(F)F)c3)cnc12)c1nc2cc(Cl)ccc2[nH]1 (centres unmarked) [Example 42, 5-chloro-2-[[[3-[3-(trifluoromethyl)phenyl]imidazo[1,2-a]pyridin-8-yl]methyl]sulfinyl]-1H-benzimidazole]	15.2 µM	
[O-][S+](Cc1cccn2c(-c3ccc(C(F)(F)F)cc3)cnc12)c1nc2ccccc2[nH]1 (centres unmarked) [Example 45, 2-[[[3-[4-(trifluoromethyl)phenyl]imidazo[1,2-a]pyridin-8-yl]methyl]sulfinyl]-1H-benzimidazole]	7.4 µM	
[O-][S+](Cc1cccn2c(-c3ccc(C(F)(F)F)cc3)cnc12)c1nc2cc(Cl)ccc2[nH]1 (centres unmarked) [Example 47, 5-chloro-2-[[[3-[4-(trifluoromethyl)phenyl]imidazo[1,2-a]pyridin-8-yl]methyl]sulfinyl]-1H-benzimidazole]	13 µM	
COC(=O)c1ccc(-c2cnc3c(C[S+]([O-])c4nc5ccccc5[nH]4)cccn23)cc1 (centres unmarked) [Example 49, methyl 4-[8-[(1H-benzimidazol-2-ylsulfinyl)methyl]imidazo[1,2-a]pyridin-3-yl]benzoate hydrate]	7.8 µM	
[O-][S+](Cc1cccn2c(-c3ccc(Cl)cc3)cnc12)c1nc2ccccc2[nH]1 (centres unmarked) [Example 52, 2-[[[3-(4-chlorophenyl)imidazo[1,2-a]pyridin-8-yl]methyl]sulfinyl]-1H-benzimidazole]	5.5 µM	
Cc1ccc(-c2cnc3c(C[S+]([O-])c4nc5ccccc5[nH]4)cccn23)cc1 (centres unmarked) [Example 54, 2-[[[3-(4-methylphenyl)imidazo[1,2-a]pyridin-8-yl]methyl]sulfinyl]-1H-benzimidazole]	3.2 µM	
[O-][S+](Cc1cccc2nccn12)c1nc2ccccc2[nH]1 (centres unmarked) [Example 56, 2-[(imidazo[1,2-a]pyridin-5-ylmethyl)sulfinyl]-1H-benzimidazole]	> 100 µM	
